Test results published in paper PMC4619123 (Virology, 2015).

Target: JAK1 (Homo sapiens, UniProt P23458)
Assay: ADP-Glo luminescent kinase assay, recombinant JAK1, Poly E4Y1 substrate, […] ATP
Assay type: biochemical

Chain of JAK1 (P23458 whole entry): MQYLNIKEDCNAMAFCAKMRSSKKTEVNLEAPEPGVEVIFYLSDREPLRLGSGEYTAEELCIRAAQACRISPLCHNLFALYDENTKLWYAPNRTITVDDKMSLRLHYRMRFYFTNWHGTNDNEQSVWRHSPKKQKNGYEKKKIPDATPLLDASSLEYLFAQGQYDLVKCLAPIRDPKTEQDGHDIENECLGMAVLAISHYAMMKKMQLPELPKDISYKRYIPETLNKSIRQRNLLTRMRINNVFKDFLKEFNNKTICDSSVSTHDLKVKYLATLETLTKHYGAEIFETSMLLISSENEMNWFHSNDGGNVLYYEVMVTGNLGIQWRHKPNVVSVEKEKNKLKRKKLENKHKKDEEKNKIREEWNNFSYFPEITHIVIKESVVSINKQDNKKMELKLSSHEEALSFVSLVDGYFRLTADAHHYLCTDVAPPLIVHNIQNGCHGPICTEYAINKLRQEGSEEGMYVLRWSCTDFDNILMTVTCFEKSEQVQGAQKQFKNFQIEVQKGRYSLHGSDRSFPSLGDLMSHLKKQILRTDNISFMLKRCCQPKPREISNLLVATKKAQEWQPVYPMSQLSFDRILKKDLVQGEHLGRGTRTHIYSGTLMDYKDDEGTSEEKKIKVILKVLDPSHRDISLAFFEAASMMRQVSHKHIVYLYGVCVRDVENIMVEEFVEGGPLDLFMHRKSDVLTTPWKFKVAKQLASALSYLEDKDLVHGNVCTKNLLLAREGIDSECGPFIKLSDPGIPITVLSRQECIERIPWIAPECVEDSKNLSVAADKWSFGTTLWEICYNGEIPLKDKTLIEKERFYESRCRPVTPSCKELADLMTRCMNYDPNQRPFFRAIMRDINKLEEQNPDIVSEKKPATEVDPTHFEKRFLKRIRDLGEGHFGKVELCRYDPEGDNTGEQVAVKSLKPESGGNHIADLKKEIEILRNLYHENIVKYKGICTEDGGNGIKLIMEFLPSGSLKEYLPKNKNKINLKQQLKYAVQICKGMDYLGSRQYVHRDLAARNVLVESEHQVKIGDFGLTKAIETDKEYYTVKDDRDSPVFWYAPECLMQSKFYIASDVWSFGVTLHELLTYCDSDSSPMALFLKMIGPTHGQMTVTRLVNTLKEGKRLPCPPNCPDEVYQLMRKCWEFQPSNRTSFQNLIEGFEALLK

NC(=O)Nc1sc(-c2ccc(F)cc2)cc1C(N)=O [TPCA-1, 2-[(aminocarbonyl)amino]-5-(4-fluorophenyl)-3-thiophenecarboxamide] gave an IC50 of 43.8 nM.
